This passage reports relative viability results from the supplement of paper PMC10307832.

Common to all, as to experiment: relative viability (nuclei count vs DMSO), 5 days (fraction); higher = more cells survive
Compound in experiment [1]: CN(C)CC1=CC(=CC=C1)N=C(C2=CC=CC=C2)C3=C(NC4=C3C=CC(=C4)C(=O)N(C)C)O + CCNC(=O)c1noc(-c2cc(C(C)C)c(O)cc2O)c1-c1ccc(CN2CCOCC2)cc1 [Luminespib] (partner 0.01 µM)
In outline: (§1)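 Relative viability equals treated-well nuclei counts divided by vehicle-well nuclei counts. Counts came from 4× images of lung cancer cell lines grown in 1536-well plates for 5 days after pin-tool dosing on the day after seeding. Dosing used one drug alone or a fixed anchor-drug dose plus five library-drug doses (not always all listed) in √10 steps, and values are medians of duplicate plates.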

Compound in experiment [2]: CN(C)CC1=CC(=CC=C1)N=C(C2=CC=CC=C2)C3=C(NC4=C3C=CC(=C4)C(=O)N(C)C)O + COc1cccc2cc(-c3nc([C@H]4CC[C@H](C(=O)O)CC4)n4ncnc(N)c34)[nH]c12 [OSI-027] (partner 0.5 µM)
In outline:
as §1

Compound in experiment [3]: CN(C)CC1=CC(=CC=C1)N=C(C2=CC=CC=C2)C3=C(NC4=C3C=CC(=C4)C(=O)N(C)C)O + CS(=O)(=O)CCNCc1ccc(-c2ccc3ncnc(Nc4ccc(OCc5cccc(F)c5)c(Cl)c4)c3c2)o1 [Lapatinib] (partner 2 µM)
The method in brief: as §1

Compound in experiment [4]: CN(C)CC1=CC(=CC=C1)N=C(C2=CC=CC=C2)C3=C(NC4=C3C=CC(=C4)C(=O)N(C)C)O + C[C@]1(O)C[C@@H](c2nc(-c3ccc4ccc(-c5ccccc5)nc4c3)c3c(N)nccn32)C1 [Linsitinib] (partner 1 µM)
In outline: as §1

Regarding LCLC-97TM1, the relative viability in experiment [1] (first compound 0.08 µM) was determined as 0.757; in experiment [1] (first compound 0.253 µM), 0.849; in experiment [1] (first compound 0.8 µM), 0.771; in experiment [1] (first compound 2.53 µM) it was 0.957; in experiment [1] (first compound 8 µM), 0.834; in experiment [2] (first compound 0.08 µM), 0.611. For the same cell line, the relative viability was 0.627 in experiment [2] (first compound 0.253 µM); 0.543 in experiment [2] (first compound 0.8 µM); 0.436 in experiment [2] (first compound 2.53 µM); 0.656 in experiment [2] (first compound 8 µM); 1.14 in experiment [3] (first compound 0.08 µM); 1.02 in experiment [3] (first compound 0.253 µM). Moreover, the relative viability in experiment [3] (first compound 0.8 µM) turned out to be 1.13; in experiment [3] (first compound 2.53 µM) it was 1.37; in experiment [3] (first compound 8 µM) it was 0.574; in experiment [4] (first compound 0.08 µM), 0.212; in experiment [4] (first compound 0.253 µM), 0.193; in experiment [4] (first compound 0.8 µM), 0.179. In addition, the results for the relative viability in experiment [4] (first compound 2.53 µM) and in experiment [4] (first compound 8 µM) were 0.148 and 0.231, respectively.

With NCI-H1666, the relative viability in experiment [1] (first compound 0.08 µM) was 1.02; in experiment [1] (first compound 0.253 µM), 1.02; in experiment [1] (first compound 0.8 µM), 1.08; in experiment [1] (first compound 2.53 µM) it was 1.01; in experiment [1] (first compound 8 µM), 1.02; in experiment [2] (first compound 0.08 µM), 0.858. For the same cell line, the relative viability in experiment [2] (first compound 0.253 µM) worked out at 0.851; in experiment [2] (first compound 0.8 µM), 0.889; in experiment [2] (first compound 2.53 µM), 0.831; in experiment [2] (first compound 8 µM), 1.05; in experiment [3] (first compound 0.08 µM) it was 0.868; in experiment [3] (first compound 0.253 µM), 0.616. Further, the relative viability in experiment [3] (first compound 0.8 µM) came to 0.887; in experiment [3] (first compound 2.53 µM), 0.668; in experiment [3] (first compound 8 µM) it was 0.774; in experiment [4] (first compound 0.08 µM), 0.695; in experiment [4] (first compound 0.253 µM), 0.934; in experiment [4] (first compound 0.8 µM), 0.741. The relative viability in experiment [4] (first compound 2.53 µM) was found to be 0.941; in experiment [4] (first compound 8 µM), 0.731.

With SW 1573, the relative viability is 0.162 in experiment [1] (first compound 0.08 µM); 0.269 in experiment [1] (first compound 0.253 µM); 0.207 in experiment [1] (first compound 0.8 µM); 0.296 in experiment [1] (first compound 2.53 µM); 0.183 in experiment [1] (first compound 8 µM); 0.581 in experiment [2] (first compound 0.08 µM). Besides, the relative viability in experiment [2] (first compound 0.253 µM) amounted to 0.644; in experiment [2] (first compound 0.8 µM) it was 0.626; in experiment [2] (first compound 2.53 µM), 0.638; in experiment [2] (first compound 8 µM) it was 0.521; in experiment [3] (first compound 0.08 µM), 1.1; in experiment [3] (first compound 0.253 µM), 1.24. In addition, the relative viability in experiment [3] (first compound 0.8 µM) came out at 1.13; in experiment [3] (first compound 2.53 µM) it was 1.08; in experiment [3] (first compound 8 µM) it was 0.955; in experiment [4] (first compound 0.08 µM), 0.735; in experiment [4] (first compound 0.253 µM), 0.829; in experiment [4] (first compound 0.8 µM) it was 0.731. Moreover, the relative viability in experiment [4] (first compound 2.53 µM) turned out to be 0.73; in experiment [4] (first compound 8 µM), 0.731.

NCI-H1993: the relative viability stood at 0.817 in experiment [1] (first compound 0.08 µM); 0.796 in experiment [1] (first compound 0.253 µM); 0.748 in experiment [1] (first compound 0.8 µM); 0.939 in experiment [1] (first compound 2.53 µM); 0.924 in experiment [1] (first compound 8 µM); 0.529 in experiment [2] (first compound 0.08 µM). Further, the relative viability in experiment [2] (first compound 0.253 µM) was 0.581; in experiment [2] (first compound 0.8 µM), 0.567; in experiment [2] (first compound 2.53 µM), 0.531; in experiment [2] (first compound 8 µM), 0.598; in experiment [3] (first compound 0.08 µM), 1.09; in experiment [3] (first compound 0.253 µM) it was 0.882. Further, the relative viability came out at 0.827 in experiment [3] (first compound 0.8 µM); 0.826 in experiment [3] (first compound 2.53 µM); 0.706 in experiment [3] (first compound 8 µM); 0.716 in experiment [4] (first compound 0.08 µM); 0.787 in experiment [4] (first compound 0.253 µM); 0.7 in experiment [4] (first compound 0.8 µM). The values for the relative viability in experiment [4] (first compound 2.53 µM) and in experiment [4] (first compound 8 µM) were 0.737 and 0.799, respectively.

Regarding NCI-H650, the relative viability is 0.843 in experiment [1] (first compound 0.08 µM); 0.777 in experiment [1] (first compound 0.253 µM); 0.872 in experiment [1] (first compound 0.8 µM); 0.667 in experiment [1] (first compound 2.53 µM); 0.861 in experiment [1] (first compound 8 µM); 0.529 in experiment [2] (first compound 0.08 µM). Further, the relative viability amounted to 0.561 in experiment [2] (first compound 0.253 µM); 0.583 in experiment [2] (first compound 0.8 µM); 0.507 in experiment [2] (first compound 2.53 µM); 0.42 in experiment [2] (first compound 8 µM); 1.02 in experiment [3] (first compound 0.08 µM); 1.12 in experiment [3] (first compound 0.253 µM). Besides, the relative viability in experiment [3] (first compound 0.8 µM) came to 1.07; in experiment [3] (first compound 2.53 µM), 0.706; in experiment [3] (first compound 8 µM), 0.755; in experiment [4] (first compound 0.08 µM), 0.854; in experiment [4] (first compound 0.253 µM), 0.965; in experiment [4] (first compound 0.8 µM), 0.952. In addition, the relative viability in experiment [4] (first compound 2.53 µM) was 0.83; in experiment [4] (first compound 8 µM) it was 0.767.

With NCI-H2085, the relative viability in experiment [1] (first compound 0.08 µM) was 0.591; in experiment [1] (first compound 0.253 µM) it was 0.533; in experiment [1] (first compound 0.8 µM), 0.477; in experiment [1] (first compound 2.53 µM), 0.527; in experiment [1] (first compound 8 µM), 0.404; in experiment [2] (first compound 0.08 µM), 0.856. The relative viability in experiment [2] (first compound 0.253 µM) stood at 1.15; in experiment [2] (first compound 0.8 µM) it was 0.582; in experiment [2] (first compound 2.53 µM), 0.955; in experiment [2] (first compound 8 µM), 0.768; in experiment [3] (first compound 0.08 µM) it was 0.791; in experiment [3] (first compound 0.253 µM), 0.844. Moreover, the relative viability in experiment [3] (first compound 0.8 µM) is 0.758; in experiment [3] (first compound 2.53 µM), 0.758; in experiment [3] (first compound 8 µM) it was 0.733; in experiment [4] (first compound 0.08 µM) it was 0.897; in experiment [4] (first compound 0.253 µM), 0.844; in experiment [4] (first compound 0.8 µM), 0.875. Further, the figures for the relative viability in experiment [4] (first compound 2.53 µM) and in experiment [4] (first compound 8 µM) were 0.92 and 0.916, respectively.

For NCI-H23, the relative viability in experiment [1] (first compound 0.08 µM) was 0.21; in experiment [1] (first compound 0.253 µM), 0.203; in experiment [1] (first compound 0.8 µM), 0.196; in experiment [1] (first compound 2.53 µM) it was 0.242; in experiment [1] (first compound 8 µM) it was 0.243; in experiment [2] (first compound 0.08 µM), 0.609. Besides, the relative viability in experiment [2] (first compound 0.253 µM) is 0.696; in experiment [2] (first compound 0.8 µM) it was 0.518; in experiment [2] (first compound 2.53 µM), 0.683; in experiment [2] (first compound 8 µM), 0.378; in experiment [3] (first compound 0.08 µM), 1.39; in experiment [3] (first compound 0.253 µM), 1.26. In addition, the relative viability was 1.03 in experiment [3] (first compound 0.8 µM); 0.984 in experiment [3] (first compound 2.53 µM); 0.886 in experiment [3] (first compound 8 µM); 0.628 in experiment [4] (first compound 0.08 µM); 0.73 in experiment [4] (first compound 0.253 µM); 0.598 in experiment [4] (first compound 0.8 µM). Further, the relative viability in experiment [4] (first compound 2.53 µM) came out at 0.554; in experiment [4] (first compound 8 µM), 0.531.
